Measured values: patent US9133183B2, “Imidazolidinones and analogs exhibiting anti-cancer and anti-proliferative activities” (Deciphera Pharmaceuticals, LLC, priority 2013, dated 2015)
Where two headings read alike, the source gives them in different places.

Tests used:
osteoclast precursors = assay: Osteoclast tartrate-resistant acid phosphatase assay; format: cell-based; settings: Osteoclast, 7-14 days, RANKL and M-CSF
[1] = molecular target: unphosphorylated c-FMS kinase (uFMS, Seq. ID no. 1) (Homo sapiens (Human), UniProt P07333); assay: uFMS kinase assay (ADP production coupled to pyruvate kinase/lactate dehydrogenase); format: biochemical
Summary of the method: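 Unphosphorylated FMS (10 nM) with polyE4Y 1 mg/mL and 500 μM ATP in 90 mM Tris pH 7.5, 10 mM MgCl2, 0.2% octyl-glucoside, 1% DMSO. ADP formation was coupled via pyruvate kinase/LDH to NADH oxidation, followed at A340 for 4 h at 30° C.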

[2] = molecular target: unphosphorylated PDGFRβ kinase (uPDGFRβ, Seq. ID No. 3) (Homo sapiens (Human), UniProt P09619); assay: Unphosphorylated PDGFRβ kinase assay (coupled pyruvate kinase/lactate dehydrogenase); format: biochemical; settings: enzymatic assay, ATP 500 μM
Summary of the method: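 Construct residues 557-1106, unphosphorylated, 15.7 nM, with poly E4Y 2.5 mg/mL and 500 μM ATP, Tris pH 7.5, 1% DMSO, 30 °C. ADP coupled to NADH oxidation via PK/LDH, A340 followed 4 h; rate from 1.5-2.5 h versus no-compound control, IC50 from percent-inhibition series.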

[3] = molecular target: c-FMS kinase in THP-1 cells (Homo sapiens (Human), UniProt P07333); assay: Phospho-FMS ELISA assay in THP-1 cells; format: cell-based; settings: 4 h compound, M-CSF stimulation 5 min; read-out: pFMS inhibition in THP-1 cells
[4] = enzymatic assay, ATP 500 μM, read-out: uFMS

unphosphorylated PDGFRβ kinase (uPDGFRβ, Seq. ID No. 3), sequence (P09619 557-1106): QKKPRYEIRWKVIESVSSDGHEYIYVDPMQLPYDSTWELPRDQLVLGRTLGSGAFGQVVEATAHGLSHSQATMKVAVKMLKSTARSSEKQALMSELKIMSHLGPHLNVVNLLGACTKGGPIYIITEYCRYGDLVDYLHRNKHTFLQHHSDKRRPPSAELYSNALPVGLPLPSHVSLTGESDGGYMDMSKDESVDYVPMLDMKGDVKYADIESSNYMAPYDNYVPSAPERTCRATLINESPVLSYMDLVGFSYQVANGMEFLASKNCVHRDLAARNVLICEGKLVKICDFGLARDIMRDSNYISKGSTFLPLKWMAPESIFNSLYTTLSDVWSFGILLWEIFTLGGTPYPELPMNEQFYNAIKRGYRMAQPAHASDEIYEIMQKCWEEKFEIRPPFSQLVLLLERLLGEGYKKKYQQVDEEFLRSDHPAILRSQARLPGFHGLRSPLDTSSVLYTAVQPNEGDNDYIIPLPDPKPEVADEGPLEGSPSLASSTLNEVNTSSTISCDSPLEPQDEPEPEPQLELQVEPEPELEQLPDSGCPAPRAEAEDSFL
c-FMS kinase in THP-1 cells, sequence (P07333 20-972): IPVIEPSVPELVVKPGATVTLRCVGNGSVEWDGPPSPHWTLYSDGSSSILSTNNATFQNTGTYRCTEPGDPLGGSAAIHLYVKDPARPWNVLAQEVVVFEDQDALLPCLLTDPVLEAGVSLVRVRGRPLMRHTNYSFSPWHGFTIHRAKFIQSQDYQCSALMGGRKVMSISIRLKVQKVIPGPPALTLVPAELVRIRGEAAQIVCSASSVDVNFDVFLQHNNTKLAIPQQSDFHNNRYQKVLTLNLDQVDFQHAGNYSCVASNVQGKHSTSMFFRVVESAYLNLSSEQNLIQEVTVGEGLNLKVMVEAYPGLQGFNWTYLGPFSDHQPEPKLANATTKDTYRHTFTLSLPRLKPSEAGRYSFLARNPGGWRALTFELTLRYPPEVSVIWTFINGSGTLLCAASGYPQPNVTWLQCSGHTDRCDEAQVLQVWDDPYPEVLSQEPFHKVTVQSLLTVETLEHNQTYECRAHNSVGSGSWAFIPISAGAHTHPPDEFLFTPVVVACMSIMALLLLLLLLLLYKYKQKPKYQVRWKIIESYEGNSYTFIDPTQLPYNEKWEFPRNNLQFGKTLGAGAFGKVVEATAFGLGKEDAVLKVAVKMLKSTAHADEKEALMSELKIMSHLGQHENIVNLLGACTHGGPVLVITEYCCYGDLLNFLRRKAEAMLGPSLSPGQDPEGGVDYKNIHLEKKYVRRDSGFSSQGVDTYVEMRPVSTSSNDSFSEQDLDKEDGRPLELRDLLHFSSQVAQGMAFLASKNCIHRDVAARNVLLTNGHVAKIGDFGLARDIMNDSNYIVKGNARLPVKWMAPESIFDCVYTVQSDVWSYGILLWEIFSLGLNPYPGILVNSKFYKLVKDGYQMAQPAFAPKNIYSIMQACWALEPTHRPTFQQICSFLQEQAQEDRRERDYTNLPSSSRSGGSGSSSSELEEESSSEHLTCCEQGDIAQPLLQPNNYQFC
unphosphorylated c-FMS kinase (uFMS, Seq. ID no. 1), sequence (P07333 538-972): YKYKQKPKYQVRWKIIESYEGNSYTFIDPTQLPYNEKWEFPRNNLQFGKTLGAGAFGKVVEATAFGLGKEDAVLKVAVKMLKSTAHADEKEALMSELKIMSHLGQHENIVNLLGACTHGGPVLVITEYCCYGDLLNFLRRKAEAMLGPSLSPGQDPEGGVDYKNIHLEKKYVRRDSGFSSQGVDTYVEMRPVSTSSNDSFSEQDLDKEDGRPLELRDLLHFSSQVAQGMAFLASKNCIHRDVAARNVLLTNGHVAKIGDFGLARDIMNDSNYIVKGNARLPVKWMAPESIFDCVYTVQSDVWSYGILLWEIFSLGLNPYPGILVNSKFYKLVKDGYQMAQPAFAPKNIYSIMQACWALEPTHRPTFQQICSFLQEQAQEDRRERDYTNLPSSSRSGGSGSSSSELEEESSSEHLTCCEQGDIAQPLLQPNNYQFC

IC50 (osteoclast precursors) | IC50 [1, 4] | IC50 [2] | IC50 [3] | SMILES | IC50 ([1]; Table 4, read-out: c-FMS IC50)
< 10 nM | < 10 nM | > 1000 nM | 10 to 100 nM | Cc1nc(NC(=O)N2CCN(C3CCCCC3)C2=O)ccc1Oc1ccnc(-c2cnn(C)c2)c1 [Example 22, 3-cyclohexyl-N-(6-methyl-5-((2-(1-methyl-1H-pyrazol-4-yl)pyridin-4-yl)oxy)pyridin-2-yl)-2-oxoimidazolidine-1-carboxamide] | 
10 to 100 nM | 10 to 100 nM | > 1000 nM | 10 to 100 nM | Cc1cc(-c2cc(Oc3ccc(NC(=O)N4CCN(C5CCOCC5)C4=O)nc3)ccn2)on1 [Example 7, N-(5-((2-(3-methylisoxazol-5-yl)pyridin-4-yl)oxy)pyridin-2-yl)-2-oxo-3-(tetrahydro-2H-pyran-4-yl)imidazolidine-1-carboxamide] | 
10 to 100 nM | 10 to 100 nM | 100 to 1000 nM | 100 to 1000 nM | Cc1ccc(-c2cc(Oc3ccc(NC(=O)N4CCN(C5CCOCC5)C4=O)nc3C)ccn2)cn1 [Example 54, N-(6-methyl-5-((6′-methyl-[2,3′-bipyridin]-4-yl)oxy)pyridin-2-yl)-2-oxo-3-(tetrahydro-2H-pyran-4-yl)imidazolidine-1-carboxamide] | 
10 to 100 nM | 100 to 1000 nM | > 1000 nM | 10 to 100 nM | CCN1CCN(C(=O)Nc2ccc(Oc3ccnc(-c4cnc(C)o4)c3)cn2)C1=O [Example 117, 3-ethyl-N-(5-((2-(2-methyloxazol-5-yl)pyridin-4-yl)oxy)pyridin-2-yl)-2-oxoimidazolidine-1-carboxamide] | 
10 to 100 nM | < 10 nM | 100 to 1000 nM | < 10 nM | Cc1nc(NC(=O)N2CCN(C(C)(C)C)C2=O)ccc1Oc1ccnc(-c2cnn(C)c2)c1 [Example 33, 3-(tert-butyl)-N-(6-methyl-5-((2-(1-methyl-1H-pyrazol-4-yl)pyridin-4-yl)oxy)pyridin-2-yl)-2-oxoimidazolidine-1-carboxamide] | 
10 to 100 nM | 10 to 100 nM | > 1000 nM | < 10 nM | COCCN1CCN(C(=O)Nc2ccc(Oc3ccnc(-c4cnn(C)c4)c3)cn2)C1=O [Example 10, 3-(2-methoxyethyl)-N-(5-((2-(1-methyl-11H-pyrazol-4-yl)pyridin-4-yl)oxy)pyridin-2-yl)-2-oxoimidazolidine-1-carboxamide] | 
< 10 nM | < 10 nM | 10 to 100 nM | 10 to 100 nM | CN(C)C(=O)Nc1cc(Oc2ccc(NC(=O)N3CCN(C4CCOCC4)C3=O)nc2)ccn1 [Example 120, N-(5-((2-(3,3-dimethylureido)pyridin-4-yl)oxy)pyridin-2-yl)-2-oxo-3-(tetrahydro-2H-pyran-4-yl)imidazolidine-1-carboxamide] | 
10 to 100 nM | 10 to 100 nM | > 1000 nM | 10 to 100 nM | Cn1cc(-c2cc(Oc3ccc(NC(=O)N4CCN(CCOC(F)(F)F)C4=O)nc3)ccn2)cn1 [Example 21, N-(5-((2-(1-methyl-1H-pyrazol-4-yl)pyridin-4-yl)oxy)pyridin-2-yl)-2-oxo-3-(2-(trifluoromethoxy)ethyl)imidazolidine-1-carboxamide] | 

SMILES | IC50 (osteoclast precursors) | IC50 [1, 4] | IC50 [2] | IC50 [3] | IC50 ([1]; Table 4, read-out: c-FMS IC50)
CCN1CCN(C(=O)Nc2ccc(Oc3ccnc(-c4cnn(C)c4)c3)c(C)n2)C1=O [Example 42, 3-ethyl-N-(6-methyl-5-((2-(1-methyl-1H-pyrazol-4-yl)pyridin-4-yl)oxy)pyridin-2-yl)-2-oxoimidazolidine-1-carboxamide] | < 10 nM | < 10 nM | > 1000 nM | 10 to 100 nM | 8 nM
Cn1cc(-c2cc(Oc3ccc(NC(=O)N4CCN(C5CCOCC5)C4=O)nc3)ccn2)cn1 [Example 1, N-(5-((2-(1-methyl-1H-pyrazol-4-yl)pyridin-4-yl)oxy)pyridin-2-yl)-2-oxo-3-(tetrahydro-2H-pyran-4-yl)imidazolidine-1-carboxamide] | 10 to 100 nM | < 10 nM | 100 to 1000 nM | 10 to 100 nM | 6 nM
